What was measured:
[1] = excess molar enthalpy (molar enthalpy of mixing); xn = mol fraction of the nth substance listed; settings: 318.15 K, 101.3 kPa, Liquid
[2] = xn = mol fraction of the nth substance listed; settings: 318.15 K, 101.3 kPa, Liquid

CCCCCCCCCCC [undecane] + CCCOC(C)=O
Settings	excess molar enthalpy [kcal/mol]	excess molar volume [m3/mol]
[1], x2 = 0.0814	0.103	–
[1], x2 = 0.1501	0.173	–
[1], x2 = 0.2265	0.24	–
[1], x2 = 0.2928	0.288	–
[1], x2 = 0.3534	0.32	–
[1], x2 = 0.4082	0.341	–
[1], x2 = 0.4582	0.354	–
[1], x2 = 0.5031	0.358	–
[1], x2 = 0.5439	0.358	–
[1], x2 = 0.5841	0.354	–
[1], x2 = 0.6226	0.345	–
[1], x2 = 0.6441	0.332	–
[1], x2 = 0.6911	0.312	–
[1], x2 = 0.7407	0.285	–
[1], x2 = 0.7924	0.25	–
[1], x2 = 0.8458	0.198	–
[1], x2 = 0.8971	0.141	–
[1], x2 = 0.9495	0.078	–
[2], x2 = 0.0791	–	3.43e-07
[2], x2 = 0.1544	–	6e-07
[2], x2 = 0.2306	–	8.2e-07
[2], x2 = 0.2908	–	9.49e-07
[2], x2 = 0.3479	–	1.051e-06
[2], x2 = 0.4046	–	1.133e-06
[2], x2 = 0.4573	–	1.159e-06
[2], x2 = 0.51	–	1.176e-06
[2], x2 = 0.5596	–	1.185e-06
[2], x2 = 0.6019	–	1.165e-06
[2], x2 = 0.6553	–	1.125e-06
[2], x2 = 0.6903	–	1.077e-06
[2], x2 = 0.7637	–	9.27e-07
[2], x2 = 0.8486	–	6.89e-07
[2], x2 = 0.9127	–	4.52e-07
[2], x2 = 0.9592	–	2.26e-07

CCCCCCCCCCC [undecane] + COC(C)=O
Settings	excess molar enthalpy [kcal/mol]	excess molar volume [m3/mol]
[1], x2 = 0.1	0.161	–
[1], x2 = 0.203	0.297	–
[1], x2 = 0.2975	0.406	–
[1], x2 = 0.3707	0.475	–
[1], x2 = 0.4315	0.516	–
[1], x2 = 0.4836	0.538	–
[1], x2 = 0.528	0.547	–
[1], x2 = 0.5612	0.549	–
[1], x2 = 0.5935	0.548	–
[1], x2 = 0.6178	0.544	–
[1], x2 = 0.6538	0.533	–
[1], x2 = 0.6915	0.517	–
[1], x2 = 0.7306	0.494	–
[1], x2 = 0.769	0.463	–
[1], x2 = 0.8102	0.418	–
[1], x2 = 0.851	0.37	–
[1], x2 = 0.888	0.299	–
[1], x2 = 0.9283	0.223	–
[1], x2 = 0.9664	0.124	–
[2], x2 = 0.1232	–	7.69e-07
[2], x2 = 0.2463	–	1.347e-06
[2], x2 = 0.3266	–	1.58e-06
[2], x2 = 0.3942	–	1.734e-06
[2], x2 = 0.4679	–	1.879e-06
[2], x2 = 0.5333	–	1.922e-06
[2], x2 = 0.5823	–	1.908e-06
[2], x2 = 0.6365	–	1.851e-06
[2], x2 = 0.68	–	1.765e-06
[2], x2 = 0.7221	–	1.676e-06
[2], x2 = 0.76	–	1.554e-06
[2], x2 = 0.7954	–	1.415e-06
[2], x2 = 0.8183	–	1.337e-06
[2], x2 = 0.8875	–	9.9e-07
[2], x2 = 0.935	–	6.43e-07
[2], x2 = 0.9683	–	3.52e-07

CCCCCCCCCCCCCCC [pentadecane] + CCCOC(C)=O
Settings	excess molar enthalpy [kcal/mol]	excess molar volume [m3/mol]
[1], x2 = 0.1056	0.137	–
[1], x2 = 0.1903	0.23	–
[1], x2 = 0.2687	0.303	–
[1], x2 = 0.3385	0.354	–
[1], x2 = 0.4042	0.389	–
[1], x2 = 0.4596	0.409	–
[1], x2 = 0.5101	0.421	–
[1], x2 = 0.5521	0.421	–
[1], x2 = 0.5935	0.416	–
[1], x2 = 0.634	0.405	–
[1], x2 = 0.674	0.389	–
[1], x2 = 0.715	0.369	–
[1], x2 = 0.7583	0.339	–
[1], x2 = 0.8027	0.301	–
[1], x2 = 0.8473	0.254	–
[1], x2 = 0.8921	0.193	–
[1], x2 = 0.9369	0.126	–
[1], x2 = 0.9732	0.0589	–
[2], x2 = 0.0878	–	3.42e-07
[2], x2 = 0.1416	–	5.35e-07
[2], x2 = 0.2112	–	7.4e-07
[2], x2 = 0.3035	–	9.75e-07
[2], x2 = 0.3749	–	1.102e-06
[2], x2 = 0.4446	–	1.188e-06
[2], x2 = 0.5048	–	1.254e-06
[2], x2 = 0.5631	–	1.259e-06
[2], x2 = 0.6193	–	1.238e-06
[2], x2 = 0.6657	–	1.213e-06
[2], x2 = 0.742	–	1.093e-06
[2], x2 = 0.8073	–	9.36e-07
[2], x2 = 0.8769	–	6.9e-07
[2], x2 = 0.9297	–	4.51e-07
[2], x2 = 0.9673	–	2.26e-07
